Laboratory results from US11085056B2, “Transfection complexes and methods of using the same” (MOLECULAR TRANSFER, INC., priority 2015, dated 2021).

Legend:
[1] = test system: HuVec Cells; assay: Transfection of HuVec cells with DOTMA/DOPE/peptide and eGFP plasmid, fluorescent plate reader; type: cell-based; settings: DOTMA/DOPE 1:1 plus peptide with RRRRRRRRRRRR (SEQ ID NO: 109) at n terminus; EF1Alpha eGFP plasmid; 0.01 mL complex; 42 hours
Procedure: (§1) Cells were plated to so that on the day of transfection the cells were 60-70% confluent in 96 well tissue culture plates. A DOMTA/DOPE Lipid solution (1:1 molar ratio) at 2 mg/mL in water were mixed with an equal volume of surface ligand peptides that had the nucleic acid binding moiety RRRRRRRRRRRR (SEQ ID NO: 109) covalently linked to the n terminus of each peptide during peptide synthesis. Peptides were at 2 mg/mL in water. The DOTMA/DOPE and the surface ligand peptide solution the transfection reagent was diluted 1 to 1 (v/v) in water. DOMTA/DOPE/PEPTIDE solutions were added to 0.1 mL of a plasmid DNA solution (EF1Alpha eGFP plasmid) at 5 μg/mL in OptiMEM. Lipofectamine 2000 was obtained from Life Technologies.
(§2) All solutions were at room temperature. A volume of 0.2 mL of a 5 μg/mL solution of DNA was aliquoted into each well of a non-tissue cultured treated plate. 4.0 μL of transfection reagents were added to DNA solutions respectively. The transfection reagent and DNA solution was mixed by pipetting up and down twice. Transfection complexes were formed for 10 minutes. After 10 minutes, 0.01 or 0.02 mL of the transfection complex was added to cells. HuVEC, HeLa, human adult keratinocytes, human primary adult fibroblast, and rat cortical neurons all respectively received 0.01 mL of the tramsfectopm complex. Human skeletal muscle cells, mouse C2C12 cells, Jurkat, and THP-1 cells received 0.02 mL of the transfection complex. Cells were incubated for 42 hours at 37° C. at 5% CO2. Plates were read on a fluorescent plate reader. Cells were also examined visually under a microscope to assess the extent of transfection (in terms of the percent of cells transfected) with a fluorescent microscope. Other modes of analysis, for example quantification with B-galactosidase or luciferase reports plasmids can also be used. […] Surface ligand that caused increase expression of GFP over the lipid DOTMA with no surface ligand were considered to enhance transfection or had higher % cells transfected were considered to enhance transfection. Peptides that gave greater than 2 fold enhancement are noted in bold and could be further optimized by adding different transfection enhancers or could be used with different cationic lipids or polymers.

[2] = test system: C2C12 Cells; assay: Transfection of C2C12 cells with DOTMA/DOPE/peptide and eGFP plasmid, fluorescent plate reader; type: cell-based, mouse; settings: DOTMA/DOPE 1:1 plus peptide with RRRRRRRRRRRR (SEQ ID NO: 109) at n terminus; EF1Alpha eGFP plasmid; 0.02 mL complex; 42 hours
Procedure: as §1, §2

[3] = test system: Human Fibroblast Cells; assay: Transfection of human fibroblast cells with DOTMA/DOPE/peptide and eGFP plasmid, fluorescent plate reader; type: cell-based; settings: DOTMA/DOPE 1:1 plus peptide with RRRRRRRRRRRR (SEQ ID NO: 109) at n terminus; EF1Alpha eGFP plasmid; 0.01 mL complex; 42 hours
Procedure: as §1, §2

[4] = test system: NL-1 iPS Cells; assay: Transfection of NL-1 iPS cells with DOTMA/DOPE/peptide and eGFP plasmid, fluorescent plate reader; type: cell-based; settings: DOTMA/DOPE 1:1 plus peptide with RRRRRRRRRRRR (SEQ ID NO: 109) at n terminus; EF1Alpha eGFP plasmid; 42 hours
Procedure: as §1, §2

[5] = test system: HeLa Cells; assay: Transfection of HeLa cells with DOTMA/SEQ ID NO: 72/peptide compared with Lipofectamine 2000; type: cell-based; settings: fusogenic peptide 0.1 mg/mL
Procedure: as §1, §2
The fusogenic peptide was added to the DOMTA/peptide formulation to achieve a final concentration of 0.1 mg/mL to see if transfection reagents were further enhanced by the addition of a fusogenic peptide and could provide higher transfection efficiency into HeLa cells and expression than the commercially available Lipofectamine 2000.

[6] = test system: HeLa Cells; assay: Transfection of HeLa cells with DOTMA/DOPE/peptide and eGFP plasmid, fluorescent plate reader; type: cell-based; settings: DOTMA/DOPE 1:1 plus peptide with RRRRRRRRRRRR (SEQ ID NO: 109) at n terminus; EF1Alpha eGFP plasmid; 0.01 mL complex; 42 hours
Procedure: as §1, §2

[7] = test system: Jurkat Cells; assay: Transfection of Jurkat cells with DOTMA/DOPE/peptide and eGFP plasmid, fluorescent plate reader; type: cell-based; settings: DOTMA/DOPE 1:1 plus peptide with RRRRRRRRRRRR (SEQ ID NO: 109) at n terminus; EF1Alpha eGFP plasmid; 0.02 mL complex; 42 hours
Procedure: as §1, §2

[8] = test system: some examined cell types; assay: Transfection expression and % cells transfected over the no peptide control; type: cell-based; settings: on some examined cell types
Procedure: as §1, §2

[9] = 0.1 μL of DOTMA/SEQ ID NO: 72/Peptide in well of a 96 well plate
[10] = 0.2 μL of DOTMA/SEQ ID NO: 72/Peptide in well of a 96 well plate
[11] = 0.3 μL of DOTMA/SEQ ID NO: 72/Peptide in well of a 96 well plate
[12] = 0.4 μL of DOTMA/SEQ ID NO: 72/Peptide in well of a 96 well plate

Substance | RF (Relative Fluorescence) of Transfection of HuVec Cells [1] | RF (Relative Fluorescence) of Transfection of C2C12 Cells [2] | RF (Relative Fluorescence) of Transfection of Human Fibroblast Cells [3] | RF (Relative Fluorescence) of Transfection of NL-1 iPS Cells [4] | RF (Relative Fluorescence), DOTMA/SEQ ID NO: 72/Peptide, HeLa Cells [5, 9] | RF (Relative Fluorescence), DOTMA/SEQ ID NO: 72/Peptide, HeLa Cells [5, 10] | RF (Relative Fluorescence), DOTMA/SEQ ID NO: 72/Peptide, HeLa Cells [5, 11] | RF (Relative Fluorescence), DOTMA/SEQ ID NO: 72/Peptide, HeLa Cells [5, 12] | RF (Relative Fluorescence) of Transfection of HeLa Cells [6] | RF (Relative Fluorescence) of Transfection of Jurkat Cells [7] | transfection expression and the % cells transfected over the no peptide control [8]
218 (SPPRRARVT; Peptidic transfection agent) [compound 218] | 14827 | 3706 | 11230 | 17049 | 12686 | 13103 | 10151 | 10081 | 11179 | 21451 | increased
219 (RKRLQVQLSIRT; Peptidic transfection agent) [compound 219] | 6237 | 1346 | 7389 | 5770 | 12135 | 13841 | 13531 | 11712 | 13721 | 10762 | increased
230 (WQPPRARI; Peptidic transfection agent) [compound 230] | 9067 | 2606 | 11771 | 14524 | – | – | – | – | 8944 | 10229 | increased
237 (KNSFMALYLSKG; Peptidic transfection agent) [compound 237] | 2302 | 6491 | 2184 | 8632 | 8986 | 9753 | 8015 | 8288 | 21288 | 1501 | increased
239 (KNSFMALYLSKGRLVFALG; Peptidic transfection agent) [compound 239] | 1404 | 10620 | 4084 | 4129 | – | – | – | – | 2717 | 2343 | increased
256 (RQVFQVAYIIIKA; Peptidic transfection agent) [compound 256] | 3030 | 3207 | 2656 | 1825 | – | – | – | – | 2243 | 3322 | increased
327 (VAEIDGIEL; Peptidic transfection agent) [compound 327] | 21018 | 2043 | 4662 | 31383 | – | – | – | – | 5345 | 14546 | increased
332 (TWYKIAFQRNRK; Peptidic transfection agent) [compound 332] | 4221 | 537 | 5178 | 8725 | – | – | – | – | 9198 | 3052 | increased
338 (GTPGPQGIA; Peptidic transfection agent) [compound 338] | 12000 | 2290 | 5625 | 17288 | – | – | – | – | 6241 | 4475 | increased
345 (TAGSCLRKFSTMFLF; Peptidic transfection agent) [compound 345] | 2939 | 6569 | 2816 | 7836 | – | – | – | – | 8493 | 2462 | increased
352 (RIQNLLKITNLRIKFVK; Peptidic transfection agent) [compound 352] | 3130 | 3324 | 3059 | 11628 | – | – | – | – | 32126 | 3150 | increased
354 (SINNTAVMQRLT; Peptidic transfection agent) [compound 354] | 19284 | 1912 | 4998 | 24043 | – | – | – | – | 4403 | 16705 | increased
359 (KAFDITYVRLKF; Peptidic transfection agent) [compound 359] | 3024 | 5693 | 3206 | 5548 | – | – | – | – | 3136 | 1880 | increased
361 (YIGSR; Peptidic transfection agent) [compound 361] | 6017 | 585 | 7014 | 9363 | – | – | – | – | 3698 | 7006 | increased
